Results from paper PMC10527924 (Toxicology in vitro : an international journal published in …, 2023).
Where two headings read alike, the source gives them in different places.

What was measured:
[1] = 0.61 nmol/μL
[2] = test system: EpiDerm-200-X reconstructed human epidermis (RhE)
[3] = not measured for this paper; no reference given; cited from earlier work
[4] = test system: excised human skin (EHS); conditions: female, 0.61 nmol/μL
[5] = test system: EpiDerm-200-X reconstructed human epidermis (RhE); test: In vitro permeation testing; conditions: 5 mm orifice Franz cell, finite dose 6 nmol/cm^2

| SMILES | time of peak flux [1] [h] | 6 h Cumulative Permeation ([1]; 6 h) [nmol/cm^2] | vehicle effect on 6 h cumulative permeation [2] | time of mean peak flux ([2]; human, 0.61 nmol/μL) [h] | 6 h Cumulative Permeation ([2]; human, 0.61 nmol/μL) [nmol/cm^2] | Log Kow (n-octanol-water partition coefficient) [3] | 6 h Cumulative Permeation [4] [nmol/cm^2] | time of mean peak flux [5] [h] |
| --- | --- | --- | --- | --- | --- | --- | --- | --- |
| Cn1c(=O)c2c(ncn2C)n(C)c1=O [caffeine] | 2 | 0.43 ± 0.03 | statistically significant decrease | 3 | 3.32 ± 0.33 | −0.07 | 0.97 ± 0.22 |  |
| O=C(O)c1ccccc1O [salicylic acid] |  |  | did not alter its permeation |  | 0.32 ± 0.05 | 2.26 | 0.18 ± 0.10 |  |
| C[C@]12CC[C@H]3[C@@H](CCC4=CC(=O)CC[C@@]43C)[C@@H]1CC[C@@H]2O [testosterone] |  |  |  |  |  |  |  | 2 |
